Test results: publication PMC11558128 (Advanced Science, 2024)
Positions of bridges follow the written chain, without caps; N, C: chain ends. Residues, ends and D or L forms follow the SMILES beside them.

Key:
[1] = target: T1, rKv4.2 D281K (Rattus norvegicus, UniProt Q63881, D281K); assay: cell-based; conditions: mean ± SEM
T1 construct: expressed in transfected cells; host or cells: HEK293T
T1 sequence (Q63881 1-630 D281K): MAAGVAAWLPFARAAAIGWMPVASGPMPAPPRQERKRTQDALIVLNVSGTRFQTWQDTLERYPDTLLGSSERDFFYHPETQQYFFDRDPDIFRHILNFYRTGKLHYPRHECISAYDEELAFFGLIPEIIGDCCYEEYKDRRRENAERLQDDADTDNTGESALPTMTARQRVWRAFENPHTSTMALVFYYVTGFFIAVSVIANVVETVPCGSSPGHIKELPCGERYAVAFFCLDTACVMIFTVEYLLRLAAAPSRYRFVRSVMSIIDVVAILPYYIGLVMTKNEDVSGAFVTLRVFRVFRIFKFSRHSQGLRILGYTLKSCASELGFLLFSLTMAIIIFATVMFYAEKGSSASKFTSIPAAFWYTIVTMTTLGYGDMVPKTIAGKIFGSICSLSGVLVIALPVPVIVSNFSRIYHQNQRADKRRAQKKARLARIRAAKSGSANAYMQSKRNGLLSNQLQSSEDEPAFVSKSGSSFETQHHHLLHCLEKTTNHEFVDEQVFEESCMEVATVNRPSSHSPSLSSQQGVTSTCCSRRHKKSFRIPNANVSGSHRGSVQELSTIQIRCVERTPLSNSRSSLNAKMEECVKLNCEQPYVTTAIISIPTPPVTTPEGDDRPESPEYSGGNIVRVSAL

[2] = test system: acutely isolated rat cardiomyocytes; conditions: 5 µM; for effect on action potential duration (APD): n = 5-6
[3] = test system: ICR mice; assay: Rotarod test; format: in vivo, mouse; conditions: 2 mg kg-1 i.p.; vs saline; n = 5-6, p > 0.9999
Experimental: In Vivo Safety Evaluation: Rotarod Test: ICR mice (weight 18–20 g, 6–8 weeks, both sex) were trained on a rotarod at a constant speed of 20 rpm for 8 min per day. […] On the 5th day, the remaining mice were randomly divided into two groups: Saline (3 males and 2 females) and 2 mg kg^−1 mGpTx1‐SA (3 males and 3 females). All groups were administered intraperitoneally and allowed 20 minutes for the drug to take effect before behavioral tests were conducted. The total motor time of the animals during 300 s was recorded for analysis.

[4] = test system: ICR mice; assay: Small intestinal propulsion test; format: in vivo, mouse; conditions: 2 mg kg-1 i.p.; vs saline; n = 4, p = 0.3429
Experimental: Small Intestinal Propulsion Test: ICR mice (weight 18–20 g, 6–8 weeks, both sex) were subjected to a 24‐hour fasting period to ensure gastrointestinal emptying. Subsequently, the mice were randomly assigned to one of two groups: Saline (2 males and 2 females) and 2 mg kg^−1 mGpTx1‐SA (2 males and 2 females). All groups received intraperitoneal administration of their respective substances and were allowed 20 minutes for the drugs to take effect. Following drug administration, each mouse received a pre‐prepared nutritive semi‐solid paste (10 g of sodium carboxymethylcellulose, 16 g of milk powder, 8 g of sucrose, 8 g of starch, and 5 g of activated charcoal, stirred well in 250 mL of ddH2O) via gavage (0.5 mL per 20 g). After 20 min, the mice were euthanized, and their small intestines were carefully removed. The distance from the pylorus to the ileum was measured along the full length of the small intestine. Additionally, the distance from the pylorus to the front of the black semi‐solid paste was measured. Small intestinal propulsion rate (%) = length of carbon paste propulsion (cm) × 100% / total length of small intestine (cm).

[5] = test system: native Kv channels of rat primary cardiomyocytes; conditions: 5 µM; n = 5
[6] = test system: ICR mice; assay: Surface electrocardiogram (ECG) recording in ICR mice; format: in vivo, mouse
Experimental: Surface Electrocardiographic (ECG) Recording: ICR mice (weight 18–20 g, 6–8 weeks, both sex) were lightly anesthetized with 3% halothane for Surface electrocardiograms (ECG), which were recorded by placing dry electrodes carefully wrapped around each of the mouse's four limbs. The data of physiological effects of intravenous administration of 0.3 mg kg^−1 mGpTx1 (4 males and 4 females) or 2 mg kg^−1 mGpTx1‐SA (3 males and 2 females) for 5 min were collected by PowerLab 2/28 and LabChart 8 (AD Instruments, Bella Vista, Australia) and analyzed standard ECG parameters by along with its accompanying ECG analysis plug‐in. For each mouse, the data of 8 cardiac cycles before and after administration were averaged for analysis.

[7] = test system: C57BL/6 mice; assay: Open field test; format: in vivo, mouse; conditions: 2 mg kg-1 i.p.; 2 min; vs saline; n = 4, p = 0.2000
Experimental: Open Field Test: The C57BL/6 mice (weight 18–20 g, 6–8 weeks, both sex) were randomly assigned to one of two groups: Saline (2 males and 2 females) and 2 mg kg^−1 mGpTx1‐SA (2 males and 2 females). All mice received intraperitoneal administration of the respective substances and were allowed 20 min for the drugs to take effect. Following drug administration, the mice were individually placed in square transparent chambers (50 × 50 cm). They were allowed to explore freely under normal light. The movements and trajectories of the mice were recorded using video and computer systems over a 2‐minute period for subsequent analysis.

CC[C@H](C)[C@H](NC(=O)[C@H](CCC(=O)O)NC(=O)[C@H](Cc1ccc(O)cc1)NC(=O)[C@H](CCCCN)NC(=O)[C@@H]1CSSC[C@@H]2NC(=O)[C@H](CCC(N)=O)NC(=O)[C@H](CC(=O)O)NC(=O)[C@H](CC(N)=O)NC(=O)[C@H](CO)NC(=O)[C@@H]3CCCN3C(=O)[C@H](CC(N)=O)NC(=O)[C@@H]3CSSC[C@H](NC(=O)[C@H](C(C)C)NC(=O)[C@H](CC(C)C)NC(=O)[C@H](CC(N)=O)NC(=O)[C@H](CO)NC(=O)[C@H](CO)NC(=O)[C@H](CCCCN)NC(=O)[C@H](CSSC[C@H](NC(=O)[C@@H](N)CCC(=O)O)C(=O)N[C@@H](CC(C)C)C(=O)NCC(=O)N[C@@H](Cc4ccccc4)C(=O)NCC(=O)N[C@@H](CCCCN)C(=O)NCC(=O)N3)NC2=O)C(=O)N[C@@H](CO)C(=O)N[C@@H](CCCNC(=N)N)C(=O)N[C@@H](CCCCN)C(=O)N[C@@H](Cc2c[nH]cn2)C(=O)N[C@@H](CCCNC(=N)N)C(=O)N[C@@H](Cc2c[nH]c3ccccc23)C(=O)N1)C(N)=O [HNTX-IV]
IC50 [1]: 191 ± 32 nM

CC(C)C[C@@H]1NC(=O)[C@H](Cc2c[nH]c3ccccc23)NC(=O)[C@H](Cc2ccc(O)cc2)NC(=O)[C@H](CCCNC(=N)N)NC(=O)[C@@H](NC(=O)[C@@H](N)CCC(=O)O)CSSC[C@@H]2NC(=O)[C@@H]3CSSC[C@@H](C(=O)N[C@H](C(=O)N[C@@H](Cc4c[nH]c5ccccc45)C(=O)N[C@@H](CC(=O)O)C(=O)N[C@@H](Cc4c[nH]c5ccccc45)C(=O)N[C@H](C(=O)N[C@@H](Cc4ccccc4)C(N)=O)[C@@H](C)O)C(C)C)NC(=O)[C@H](Cc4c[nH]c5ccccc45)NC(=O)CNC(=O)[C@H](Cc4c[nH]cn4)NC(=O)[C@H](CCCCN)NC(=O)[C@@H]4CCCN4C(=O)[C@H](CO)NC(=O)[C@H](CSSC[C@H](NC(=O)[C@H]([C@@H](C)O)NC(=O)CNC1=O)C(=O)N[C@@H](CO)C(=O)N[C@@H](CCCCN)C(=O)N[C@@H]([C@@H](C)O)C(=O)NCC(=O)N[C@@H](CC(=O)O)C(=O)N3)NC(=O)[C@H](CO)NC(=O)[C@H](CC(C)C)NC(=O)[C@H](Cc1c[nH]cn1)NC(=O)[C@H](CO)NC2=O [HNTX-VIIa] (H-ECRYWLGTCSKTGDCCSHLSCSPKHGWCVWDWTF-NH2; disulfide 2-16, 9-21, 15-28)
IC50 [1]: 33 ± 6 nM

CC[C@H](C)[C@@H]1NC(=O)[C@@H]2CSSC[C@@H]3NC(=O)[C@H](C(C)C)NC(=O)[C@H](CC(C)C)NC(=O)[C@H](CC(N)=O)NC(=O)[C@@H]4CCCN4C(=O)[C@H](CCCNC(=N)N)NC(=O)[C@H](CSSC[C@H](NC(=O)[C@@H](N)CC(=O)O)C(=O)N[C@@H](CC(C)C)C(=O)NCC(=O)N[C@@H](C)C(=O)N[C@@H](Cc4ccccc4)C(=O)N[C@@H](CCCNC(=N)N)C(=O)N[C@@H](CCCCN)C(=O)N2)NC(=O)[C@H](CSSC[C@@H](C(=O)N[C@@H](CCCCN)C(=O)N[C@@H](Cc2ccc(O)cc2)C(=O)N[C@H](C(=O)N[C@@H](Cc2ccccc2)C(N)=O)C(C)C)NC(=O)[C@H](Cc2c[nH]c4ccccc24)NC(=O)[C@H](CCCNC(=N)N)NC(=O)[C@H](Cc2c[nH]cn2)NC(=O)[C@H](C)NC(=O)[C@H](CO)NC(=O)[C@H](CO)NC3=O)NC(=O)[C@H](CCCCN)NC(=O)[C@H](CC(=O)O)NC(=O)[C@H](CC(N)=O)NC(=O)[C@H](CC(=O)O)NC(=O)[C@@H]2CCCN2C1=O [mGpTx1-SA] (H-DCLGAFRKCIPDNDKCCRPNLVCSSAHRWCKYVF-NH2; disulfide 2-17, 9-23, 16-30)
effect on AP amplitude [2]: no significant changes
effect on resting membrane potential (RMP) [2]: no significant changes
effect on action potential duration (APD) [2]: no effect
balance time of mice on the rotarod test [3]: did not affect
small intestinal propulsion [4]: no effect
inhibition of Kv currents in the primary cardiomyocytes [5]: did not inhibit
RR interval ([6]; 2 mg kg-1, tail vein, control 0.13 ± 0.01 s, n = 5, p = 0.3229): 0.13 ± 0.01 s
heart rate ([6]; 2 mg kg-1, tail vein, control 478.2 ± 24.3, n = 5, p = 0.8856): 475.3 ± 24.7
effect on the ECGs ([6]; 2 mg kg-1, tail vein, n = 5): no effect
exploratory and locomotor behavior, open-field test [7]: did not influence significantly

CC[C@H](C)[C@@H]1NC(=O)[C@@H]2CSSC[C@@H]3NC(=O)[C@H](C(C)C)NC(=O)[C@H](CC(C)C)NC(=O)[C@H](CC(N)=O)NC(=O)[C@@H]4CCCN4C(=O)[C@H](CCCNC(=N)N)NC(=O)[C@H](CSSC[C@H](NC(=O)[C@@H](N)CC(=O)O)C(=O)N[C@@H](CC(C)C)C(=O)NCC(=O)N[C@@H](C)C(=O)N[C@@H](Cc4ccccc4)C(=O)N[C@@H](CCCNC(=N)N)C(=O)N[C@@H](CCCCN)C(=O)N2)NC(=O)[C@H](CSSC[C@@H](C(=O)N[C@@H](CCCCN)C(=O)N[C@@H](Cc2ccc(O)cc2)C(=O)N[C@H](C(=O)N[C@@H](Cc2ccccc2)C(N)=O)C(C)C)NC(=O)[C@H](Cc2c[nH]c4ccccc24)NC(=O)[C@H](CCCNC(=N)N)NC(=O)[C@H](Cc2cnc[nH]2)NC(=O)[C@H](CC(C)C)NC(=O)[C@H](CCCNC(=N)N)NC(=O)[C@H](CO)NC3=O)NC(=O)[C@H](CCCCN)NC(=O)[C@H](CC(=O)O)NC(=O)[C@H](CC(N)=O)NC(=O)[C@H](CC(=O)O)NC(=O)[C@@H]2CCCN2C1=O [mGpTx1] (H-DCLGAFRKCIPDNDKCCRPNLVCSRLHRWCKYVF-NH2; disulfide 2-17, 9-23, 16-30)
effect on AP amplitude [2]: no significant changes
effect on resting membrane potential (RMP) [2]: no significant changes
APD at 90% repolarization (APD 90) ([2]; before treatment 51.7 ± 14.6 ms, n = 5, p = 0.0289): 137.1 ± 36.3 ms
effect on action potential duration (APD) [2]: significantly prolonged
IC50 [1]: 320 ± 45 nM
QTc interval ([6]; 0.3 mg kg-1, tail vein, control 0.07 ± 0.01 s, n = 8, p < 0.001): 0.12 ± 0.01 s
RR interval ([6]; 0.3 mg kg-1, tail vein, control 0.12 ± 0.01 s, n = 8, p = 0.0088): 0.14 ± 0.01 s
T-wave amplitude ([6]; 0.3 mg kg-1, tail vein, control 0.20 ± 0.03 mV, n = 8, p = 0.0138): 0.09 ± 0.02 mV
heart rate ([6]; 0.3 mg kg-1, tail vein, control 508.4 ± 24.5, n = 8, p = 0.0045): 451.6 ± 27.1
effect on the ECGs ([6]; 0.3 mg kg-1, tail vein, n = 8): notably altered the shape of the ECGs
